{"source": "patent US20070155746A1", "about": "“NOVEL SUBSTITUTED PYRIDINYLOXY AND PYRIMIDINYLOXY AMIDES USEFUL AS INHIBITORS OF PROTEIN KINASES” (KALYPSYS, INC., priority 2005, published 2007)", "assay_type_in_all_cases": "biochemical", "key": {"PDGFRβ kinase": {"target": "T1, PDGFRβ kinase (Homo sapiens, UniProt P09619)", "T1 construct": "purchased Invitrogen Inc. P3082", "T1 sequence (P09619 33-1106)": "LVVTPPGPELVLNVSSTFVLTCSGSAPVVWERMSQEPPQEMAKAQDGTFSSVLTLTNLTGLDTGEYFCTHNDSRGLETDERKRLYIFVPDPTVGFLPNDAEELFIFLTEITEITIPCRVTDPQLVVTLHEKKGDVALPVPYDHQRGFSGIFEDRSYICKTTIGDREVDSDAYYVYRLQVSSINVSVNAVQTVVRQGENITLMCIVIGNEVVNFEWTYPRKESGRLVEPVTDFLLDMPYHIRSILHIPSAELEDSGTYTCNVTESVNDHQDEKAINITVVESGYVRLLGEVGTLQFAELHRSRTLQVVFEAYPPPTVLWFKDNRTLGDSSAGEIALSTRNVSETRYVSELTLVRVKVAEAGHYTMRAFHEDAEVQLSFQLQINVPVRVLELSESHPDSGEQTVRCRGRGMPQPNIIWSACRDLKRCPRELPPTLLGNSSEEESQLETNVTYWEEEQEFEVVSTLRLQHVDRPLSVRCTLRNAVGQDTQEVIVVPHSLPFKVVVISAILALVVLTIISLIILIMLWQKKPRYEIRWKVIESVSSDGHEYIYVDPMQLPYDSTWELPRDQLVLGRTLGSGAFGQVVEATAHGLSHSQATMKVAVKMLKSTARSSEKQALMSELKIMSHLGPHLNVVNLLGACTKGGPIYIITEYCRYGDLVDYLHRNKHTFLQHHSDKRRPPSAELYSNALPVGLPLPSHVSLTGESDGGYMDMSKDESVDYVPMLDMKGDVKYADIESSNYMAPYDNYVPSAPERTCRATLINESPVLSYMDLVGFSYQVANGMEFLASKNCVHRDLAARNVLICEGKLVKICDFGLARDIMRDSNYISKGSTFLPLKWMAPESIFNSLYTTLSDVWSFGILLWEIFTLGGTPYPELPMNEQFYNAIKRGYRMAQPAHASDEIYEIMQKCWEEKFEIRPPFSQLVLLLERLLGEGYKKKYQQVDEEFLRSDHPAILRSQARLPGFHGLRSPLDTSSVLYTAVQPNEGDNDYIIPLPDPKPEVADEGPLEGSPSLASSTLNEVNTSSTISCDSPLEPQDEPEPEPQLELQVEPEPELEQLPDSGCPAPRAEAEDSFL", "assay": "In vitro PDGFRβ kinase assay", "summary_of_the_method": "(§1)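 Human VEGFR2 (20 ng) or PDGFRβ (25 ng) was preincubated 10 min at about 22°C with compound, then reacted 2 h at 30°C with poly Glu:Tyr (4:1), ATP added at 60 μM. ADP formation was detected by ADP Quest coupled resorufin fluorescence (Ex 530/Em 580 nm). Efficacy is expressed as a percentage of Bay 43-9006 positive-control activity, with DMSO as negative control.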"}, "[1]": {"target": "T2, human B-Raf protein kinase (Homo sapiens, UniProt P15056)", "T2 construct": "GST (N); purchased Upstate Inc. 14-530 (B-Raf); 14-420 (Mek1)", "T2 sequence (P15056 416-766)": "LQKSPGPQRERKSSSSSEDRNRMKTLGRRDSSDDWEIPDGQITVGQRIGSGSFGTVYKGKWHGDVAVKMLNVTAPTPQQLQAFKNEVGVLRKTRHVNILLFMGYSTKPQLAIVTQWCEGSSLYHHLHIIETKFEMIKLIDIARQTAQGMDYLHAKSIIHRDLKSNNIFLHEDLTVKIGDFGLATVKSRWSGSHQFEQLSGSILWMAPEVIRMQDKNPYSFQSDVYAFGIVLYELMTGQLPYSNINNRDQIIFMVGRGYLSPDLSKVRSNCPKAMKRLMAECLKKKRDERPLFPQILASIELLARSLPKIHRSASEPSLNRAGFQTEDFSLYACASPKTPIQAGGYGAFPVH", "assay": "In vitro B-Raf/Mek1 composite kinase assay", "summary_of_the_method": "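GST-tagged human B-Raf (Δ1-415), 1 ng, in MOPS pH 7.2 buffer with 10 mM MgCl2, preincubated 15 min with compound at room temperature; after 2 h, ATP depletion read by luminescence. Inhibition expressed as percentage of positive-control activity, DMSO as negative control.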"}, "VEGFR2 kinase": {"target": "T3, VEGFR2 kinase (Homo sapiens, UniProt P35968)", "T3 construct": "purchased Invitrogen Inc PV3660", "T3 sequence (P35968 20-1356)": "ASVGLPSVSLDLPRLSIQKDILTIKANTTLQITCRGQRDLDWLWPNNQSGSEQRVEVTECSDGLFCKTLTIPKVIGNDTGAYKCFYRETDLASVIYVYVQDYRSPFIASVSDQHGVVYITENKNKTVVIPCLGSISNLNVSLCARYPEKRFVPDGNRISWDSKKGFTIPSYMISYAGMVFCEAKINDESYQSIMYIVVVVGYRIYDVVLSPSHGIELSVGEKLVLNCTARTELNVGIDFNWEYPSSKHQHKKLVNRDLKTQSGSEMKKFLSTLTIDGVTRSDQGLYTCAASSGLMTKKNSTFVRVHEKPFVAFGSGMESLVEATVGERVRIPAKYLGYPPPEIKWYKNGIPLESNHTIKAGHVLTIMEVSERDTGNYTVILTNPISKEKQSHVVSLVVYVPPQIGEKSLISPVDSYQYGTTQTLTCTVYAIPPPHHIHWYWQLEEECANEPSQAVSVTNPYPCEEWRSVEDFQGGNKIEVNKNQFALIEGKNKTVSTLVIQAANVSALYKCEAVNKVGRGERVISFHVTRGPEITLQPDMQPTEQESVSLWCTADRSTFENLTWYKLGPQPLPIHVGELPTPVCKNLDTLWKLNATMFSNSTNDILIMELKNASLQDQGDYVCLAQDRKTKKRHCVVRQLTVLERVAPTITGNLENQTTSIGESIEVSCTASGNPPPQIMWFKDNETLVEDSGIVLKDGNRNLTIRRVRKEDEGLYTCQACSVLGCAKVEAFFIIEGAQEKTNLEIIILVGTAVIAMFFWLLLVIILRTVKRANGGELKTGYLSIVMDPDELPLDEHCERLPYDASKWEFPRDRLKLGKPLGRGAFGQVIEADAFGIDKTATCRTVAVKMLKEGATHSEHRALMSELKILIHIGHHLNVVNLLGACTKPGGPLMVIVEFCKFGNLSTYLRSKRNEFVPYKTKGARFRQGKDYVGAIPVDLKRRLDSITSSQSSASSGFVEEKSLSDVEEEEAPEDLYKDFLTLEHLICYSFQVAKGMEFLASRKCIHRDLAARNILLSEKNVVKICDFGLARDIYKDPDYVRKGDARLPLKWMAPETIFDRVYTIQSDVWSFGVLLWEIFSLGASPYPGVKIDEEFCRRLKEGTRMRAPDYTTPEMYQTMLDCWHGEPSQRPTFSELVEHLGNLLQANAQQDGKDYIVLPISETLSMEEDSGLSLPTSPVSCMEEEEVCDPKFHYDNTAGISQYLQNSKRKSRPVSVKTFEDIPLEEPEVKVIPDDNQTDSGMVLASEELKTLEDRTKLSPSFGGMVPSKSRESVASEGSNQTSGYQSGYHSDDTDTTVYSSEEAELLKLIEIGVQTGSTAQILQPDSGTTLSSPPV", "assay": "In vitro VEGFR2 kinase assay", "summary_of_the_method": "as §1"}}, "data": [{"smiles": "Cn1cc(-c2cc(Oc3cccc(NC(=O)c4ccc5c(c4)CCO5)c3)ccn2)cn1", "note": "[Example 67, N-(3-(2-(1-Methyl-1H-pyrazol-4-yl)pyridin-4-yloxy)phenyl)-2,3-dihydrobenzofuran-5-carboxamide]", "values": [{"measurement": "IC50", "setting": "PDGFRβ kinase", "result": "> 10", "unit": "µM"}, {"measurement": "IC50", "setting": "[1]", "result": "> 10", "unit": "µM"}, {"measurement": "IC50", "setting": "VEGFR2 kinase", "result": "> 10", "unit": "µM"}]}, {"smiles": "Cn1cc(-c2cc(Oc3cccc(NC(=O)c4cccc5c4OCC5)c3)ccn2)cn1", "note": "[Example 68, N-(3-(2-(1-Methyl-1H-pyrazol-4-yl)pyridin-4-yloxy)phenyl)-2,3-dihydrobenzofuran-7-carboxamide]", "values": [{"measurement": "IC50", "setting": "PDGFRβ kinase", "result": "> 10", "unit": "µM"}, {"measurement": "IC50", "setting": "[1]", "result": "≤ 10", "unit": "µM"}, {"measurement": "IC50", "setting": "VEGFR2 kinase", "result": "> 10", "unit": "µM"}]}, {"smiles": "Cn1cc(-c2cc(Oc3cccc(NC(=O)c4cccc5[nH]ccc45)c3)ccn2)cn1", "note": "[Example 69, N-(3-(2-(1-Methyl-1H-pyrazol-4-yl)pyridin-4-yloxy)phenyl)-1H-indole-4-carboxamide]", "values": [{"measurement": "IC50", "setting": "PDGFRβ kinase", "result": "> 10", "unit": "µM"}, {"measurement": "IC50", "setting": "[1]", "result": "≤ 10", "unit": "µM"}, {"measurement": "IC50", "setting": "VEGFR2 kinase", "result": "≤ 10", "unit": "µM"}]}, {"smiles": "Cn1cc(-c2cc(Oc3cccc(NC(=O)c4ccc5[nH]ccc5c4)c3)ccn2)cn1", "note": "[Example 70, N-(3-(2-(1-Methyl-1H-pyrazol-4-yl)pyridin-4-yloxy)phenyl)-1H-indole-5-carboxamide]", "values": [{"measurement": "IC50", "setting": "PDGFRβ kinase", "result": "> 10", "unit": "µM"}, {"measurement": "IC50", "setting": "[1]", "result": "≤ 10", "unit": "µM"}, {"measurement": "IC50", "setting": "VEGFR2 kinase", "result": "≤ 10", "unit": "µM"}]}, {"smiles": "Cn1cc(-c2cc(Oc3cccc(NC(=O)c4cccc5cc[nH]c45)c3)ccn2)cn1", "note": "[Example 71, N-(3-(2-(1-Methyl-1H-pyrazol-4-yl)pyridin-4-yloxy)phenyl)-1H-indole-7-carboxamide]", "values": [{"measurement": "IC50", "setting": "PDGFRβ kinase", "result": "> 10", "unit": "µM"}, {"measurement": "IC50", "setting": "[1]", "result": "≤ 10", "unit": "µM"}, {"measurement": "IC50", "setting": "VEGFR2 kinase", "result": "> 10", "unit": "µM"}]}, {"smiles": "CCOc1cccc(C(=O)Nc2cccc(Oc3ccnc(-c4cnn(C)c4)c3)c2)c1", "note": "[Example 72, 3-Ethoxy-N-(3-(2-(1-methyl-1H-pyrazol-4-yl)pyridin-4-yloxy)phenyl)benzamide]", "values": [{"measurement": "IC50", "setting": "PDGFRβ kinase", "result": "≤ 10", "unit": "µM"}, {"measurement": "IC50", "setting": "[1]", "result": "≤ 10", "unit": "µM"}, {"measurement": "IC50", "setting": "VEGFR2 kinase", "result": "≤ 10", "unit": "µM"}]}, {"smiles": "CCCOc1cccc(C(=O)Nc2cccc(Oc3ccnc(-c4cnn(C)c4)c3)c2)c1", "note": "[Example 73, N-(3-(2-(1-Methyl-1H-pyrazol-4-yl)pyridin-4-yloxy)phenyl)-3-propoxybenzamide]", "values": [{"measurement": "IC50", "setting": "PDGFRβ kinase", "result": "> 10", "unit": "µM"}, {"measurement": "IC50", "setting": "[1]", "result": "> 10", "unit": "µM"}, {"measurement": "IC50", "setting": "VEGFR2 kinase", "result": "> 10", "unit": "µM"}]}, {"smiles": "CCCOc1ccc(C(=O)Nc2cccc(Oc3ccnc(-c4cnn(C)c4)c3)c2)cc1", "note": "[Example 74, N-(3-(2-(1-Methyl-1H-pyrazol-4-yl)pyridin-4-yloxy)phenyl)-4-propoxybenzamide]", "values": [{"measurement": "IC50", "setting": "PDGFRβ kinase", "result": "> 10", "unit": "µM"}, {"measurement": "IC50", "setting": "[1]", "result": "≤ 10", "unit": "µM"}, {"measurement": "IC50", "setting": "VEGFR2 kinase", "result": "> 10", "unit": "µM"}]}, {"smiles": "CC(C)Oc1ccc(C(=O)Nc2cccc(Oc3ccnc(-c4cnn(C)c4)c3)c2)cc1", "note": "[Example 75, 4-Isopropoxy-N-(3-(2-(1-methyl-1H-pyrazol-4-yl)pyridin-4-yloxy)phenyl)benzamide]", "values": [{"measurement": "IC50", "setting": "PDGFRβ kinase", "result": "> 10", "unit": "µM"}, {"measurement": "IC50", "setting": "[1]", "result": "≤ 10", "unit": "µM"}, {"measurement": "IC50", "setting": "VEGFR2 kinase", "result": "> 10", "unit": "µM"}]}, {"smiles": "CCCCOc1ccc(C(=O)Nc2cccc(Oc3ccnc(-c4cnn(C)c4)c3)c2)cc1", "note": "[Example 76, 4-Butoxy-N-(3-(2-(1-methyl-1H-pyrazol-4-yl)pyridin-4-yloxy)phenyl)benzamide]", "values": [{"measurement": "IC50", "setting": "PDGFRβ kinase", "result": "> 10", "unit": "µM"}, {"measurement": "IC50", "setting": "[1]", "result": "≤ 10", "unit": "µM"}, {"measurement": "IC50", "setting": "VEGFR2 kinase", "result": "≤ 10", "unit": "µM"}]}]}
